Measured values from patent publication EP4678638A1, “NEW E3 UBIQUITIN LIGASE LIGAND, PROTEIN DEGRADATION AGENT AND USE THEREOF” (priority 2023, dated 2024).

Legend:
[1] = test system: H2228; experiment: CCK-8 proliferation, NCI-H2228 (H2228); type: cell-based; settings: Homo sapiens, NCI-H2228; Table B6, compounds designed based on the ALK inhibitors; H2228 cells; read-out: Inhibitory activity (IC50, nM) on tumor cell proliferation, H2228
Method in brief: (§1)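 CCK-8 viability readout; IC50 from growth-inhibition curve fitting. Cells plated, dosed 24h later with a 10-point series, top 10µM, 5-fold steps. Culture at 37°C, 5% CO2.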

[2] = test system: H1975; experiment: CCK-8 proliferation, NCI-H1975 (H1975); type: cell-based, Human; settings: Homo sapiens, NCI-H1975; Table B6, compounds designed based on the ALK inhibitors; H1975 cells; read-out: Inhibitory activity (IC50, nM) on tumor cell proliferation, H1975
Method in brief: as §1

[3] = test system: MCF7; experiment: CCK-8 proliferation, MCF7 (MCF-7); type: cell-based; settings: Homo sapiens, MCF7; Table B6, compounds designed based on the ALK inhibitors; MCF-7 cells; read-out: Inhibitory activity (IC50, nM) on tumor cell proliferation, MCF-7
Method in brief: as §1

[4] = test system: SR; experiment: CCK-8 proliferation, SR; type: cell-based, Human; settings: Homo sapiens; Table B6, compounds designed based on the ALK inhibitors; SR cells; read-out: Inhibitory activity (IC50, nM) on tumor cell proliferation, SR
Method in brief: as §1

[5] = test system: MM.1S; experiment: CCK-8 proliferation, MM.1S; type: cell-based; settings: Homo sapiens, MM1.S; Table B6, compounds designed based on the ALK inhibitors; MM.1S cells; read-out: Inhibitory activity (IC50, nM) on tumor cell proliferation, MM.1S
Method in brief: as §1

[6] = test system: MDA-MB-231; experiment: CCK-8 proliferation, MDA-MB-231; type: cell-based; settings: Homo sapiens; Table B6, compounds designed based on the ALK inhibitors; MDA-MB-231 cells; read-out: Inhibitory activity (IC50, nM) on tumor cell proliferation, MDA-MB-231
Procedure: The tumor cells used herein were cultured in a cell culture medium listed in table A1 at 37°C in an incubator with 5% CO2. Prior to experimentation, all cell lines used were correctly identified by STR profiling, and tested negative for mycoplasma contamination using a mycoplasma detection kit through routine screenings. Table A1. Tumor cells and cell culture medium used in the present disclosure
IC50 values of the compounds of the present disclosure (including the compounds in Table 1, and compounds of examples) were measured using the Meilun Cell Counting Kit-8 kit from Dalian Meilun Biotech Co., Ltd. Assay details are as follows: tumor cells were seeded in a 96-well plate at a density listed in Table A2. After 24h, 100 µL of the inoculated cells were treated with 0.5µL of the compounds of the present disclosure (including the compounds in Tables 1 and 2, and compounds of examples) at 10 different successively decreasing concentrations (starting at the highest concentration of 10µM; 5-fold serial dilutions). After the cells were treated with the compounds of the present disclosure for a period of time, the cell viability detection reagent was added to the culture medium for cell viability assessment according to the instructions provided with the CCK-8 kit. […] The growth inhibition of the compounds of the present disclosure on cells was plotted by Prism Graphpad software, and the IC50 values of the compounds of the present disclosure were calculated therefrom. […] Seeding protocol and treatment time for tumor cells

[7] = target: T1, ALK (Homo sapiens, UniProt Q96SW2+Q9HC35+Q9UM73); experiment: Western blot degradation of ALK (H2228 Cell); type: cell-based; settings: Table D5
T1 construct: evaluate the effects of the compounds of the present disclosure on the expression of target proteins in cells; endogenous in cells; host or cells: H2228
Method in brief: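 Degradation is assessed by immunoblotting lysates of treated cells. Target bands are quantified by grayscale and normalised to an internal control, so degradation rate equals 100% minus % remaining.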

[8] = target: T2, human Cereblon WT GST-tagged protein (Homo sapiens, UniProt Q96SW2); experiment: CRBN binding, HTRF (CEREBLON BINDING kit); settings: Table II-2, CRBN binding screening, HTRF; for inhibition at 0.5 µM: read-out: Inhibition rate (%) at 0.5µM; for inhibition at 2 µM: read-out: Inhibition rate (%) at 2 µM
T2 construct: purchased CISBIO 64BDCRBNPEH
Method in brief: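 Competitive HTRF: GST-tagged human WT Cereblon mixed with compound, Thalidomide-Re tracer and GST Eu antibody, incubated 3 h at room temperature. Signals read at 620 and 665 nm.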

T2 sequence (Q96SW2 whole entry): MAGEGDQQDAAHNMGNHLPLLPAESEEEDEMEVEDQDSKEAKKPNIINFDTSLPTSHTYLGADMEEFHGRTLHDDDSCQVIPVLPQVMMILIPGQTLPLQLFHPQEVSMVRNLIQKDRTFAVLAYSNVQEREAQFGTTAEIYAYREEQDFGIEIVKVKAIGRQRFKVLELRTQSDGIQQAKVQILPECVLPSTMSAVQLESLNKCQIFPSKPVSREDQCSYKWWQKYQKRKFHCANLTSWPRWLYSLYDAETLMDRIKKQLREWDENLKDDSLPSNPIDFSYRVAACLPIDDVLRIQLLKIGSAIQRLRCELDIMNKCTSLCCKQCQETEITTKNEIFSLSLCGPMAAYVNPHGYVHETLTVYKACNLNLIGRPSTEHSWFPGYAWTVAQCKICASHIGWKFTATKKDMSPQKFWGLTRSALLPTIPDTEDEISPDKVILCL
T1 sequence (Q9HC35+Q9UM73 fused): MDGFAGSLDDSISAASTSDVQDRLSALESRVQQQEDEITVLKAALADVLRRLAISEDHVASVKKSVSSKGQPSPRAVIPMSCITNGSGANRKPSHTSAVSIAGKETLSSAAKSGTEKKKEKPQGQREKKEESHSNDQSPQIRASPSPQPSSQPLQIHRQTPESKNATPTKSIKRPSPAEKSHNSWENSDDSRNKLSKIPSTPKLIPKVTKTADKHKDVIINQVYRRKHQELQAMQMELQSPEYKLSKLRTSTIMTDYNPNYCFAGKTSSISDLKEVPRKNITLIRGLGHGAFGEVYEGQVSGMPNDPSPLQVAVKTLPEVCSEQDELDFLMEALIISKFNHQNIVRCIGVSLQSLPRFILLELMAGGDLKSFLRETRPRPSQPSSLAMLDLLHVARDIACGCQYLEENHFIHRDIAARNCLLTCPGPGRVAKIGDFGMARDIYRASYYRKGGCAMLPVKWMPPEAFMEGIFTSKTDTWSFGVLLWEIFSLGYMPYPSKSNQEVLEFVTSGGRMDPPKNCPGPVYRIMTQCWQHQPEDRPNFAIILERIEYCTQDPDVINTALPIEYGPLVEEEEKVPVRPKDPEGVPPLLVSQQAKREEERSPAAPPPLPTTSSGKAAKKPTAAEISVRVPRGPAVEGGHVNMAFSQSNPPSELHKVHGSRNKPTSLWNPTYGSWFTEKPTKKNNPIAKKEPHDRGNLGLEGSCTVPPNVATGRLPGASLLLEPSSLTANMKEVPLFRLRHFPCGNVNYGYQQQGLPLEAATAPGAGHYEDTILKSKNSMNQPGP
T1 sequence (Q96SW2 whole entry): as the sequence (Q96SW2 whole entry) above
T1 sequence (Q16531 whole entry partner): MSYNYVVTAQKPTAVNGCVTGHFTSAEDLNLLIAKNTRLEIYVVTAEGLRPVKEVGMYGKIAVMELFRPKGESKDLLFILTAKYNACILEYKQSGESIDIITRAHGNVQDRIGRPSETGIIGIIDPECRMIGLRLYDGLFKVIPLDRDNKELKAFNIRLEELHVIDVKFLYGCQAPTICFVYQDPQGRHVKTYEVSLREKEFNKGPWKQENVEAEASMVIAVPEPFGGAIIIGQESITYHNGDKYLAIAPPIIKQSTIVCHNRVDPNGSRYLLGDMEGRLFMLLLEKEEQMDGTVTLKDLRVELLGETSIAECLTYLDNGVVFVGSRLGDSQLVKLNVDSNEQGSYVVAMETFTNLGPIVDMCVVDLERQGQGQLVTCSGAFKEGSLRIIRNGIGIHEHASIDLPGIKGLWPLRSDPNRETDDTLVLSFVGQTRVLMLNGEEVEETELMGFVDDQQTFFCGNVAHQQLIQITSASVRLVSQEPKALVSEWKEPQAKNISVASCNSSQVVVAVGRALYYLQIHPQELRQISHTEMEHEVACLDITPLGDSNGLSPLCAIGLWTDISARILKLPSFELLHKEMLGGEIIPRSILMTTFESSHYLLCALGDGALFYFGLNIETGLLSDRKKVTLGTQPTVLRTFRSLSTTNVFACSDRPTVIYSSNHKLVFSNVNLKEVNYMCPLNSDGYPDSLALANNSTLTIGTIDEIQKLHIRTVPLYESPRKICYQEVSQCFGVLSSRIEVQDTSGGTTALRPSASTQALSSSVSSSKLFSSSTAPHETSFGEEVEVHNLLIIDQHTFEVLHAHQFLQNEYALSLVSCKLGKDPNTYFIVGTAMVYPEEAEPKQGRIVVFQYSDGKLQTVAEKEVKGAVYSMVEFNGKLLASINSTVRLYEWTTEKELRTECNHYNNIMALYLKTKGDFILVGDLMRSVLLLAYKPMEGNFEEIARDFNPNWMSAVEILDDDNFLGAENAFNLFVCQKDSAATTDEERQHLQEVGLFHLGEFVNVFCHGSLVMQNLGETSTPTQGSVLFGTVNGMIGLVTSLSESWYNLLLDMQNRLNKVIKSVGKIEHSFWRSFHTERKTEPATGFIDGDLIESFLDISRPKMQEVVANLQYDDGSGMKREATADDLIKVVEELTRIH

COc1cc(N2CCC(N(C)Cc3ccc(N4CCC(=O)NC4=O)cc3)CC2)ccc1Nc1ncc(Cl)c(Nc2ccccc2P(C)(C)=O)n1 [GT-07615, 1-(4-(((1-(4-((5-chloro-4-((2-(dimethylphosphoryl)phenyl)amino)pyrimidin-2-yl)amino)-3-methoxyphenyl)piperidin-4-yl)(methyl)amino)methyl)phenyl)dihydropyrimidine-2,4(1H,3H)-dione]
IC50 [1]: 10 to 50 nM
IC50 [2]: 100 to 500 nM
IC50 [3]: 100 to 500 nM
IC50 [4]: 1 to 10 nM
IC50 [5]: 500 to 1000 nM
IC50 [6]: 100 to 500 nM
Degradation of substrate protein ALK (substrate protein remaining %) [7]: A (A is defined as 0% ≤ substrate protein remaining % ≤ 80%)

COc1cc(N2CCC(N(C)Cc3cccc(NC4CCC(=O)NC4=O)c3)CC2)ccc1Nc1ncc(Cl)c(Nc2ccccc2P(C)(C)=O)n1 (stereo not shown) [GT-07692, 3-((3-(((1-(4-((5-chloro-4-((2-(dimethylphosphoryl)phenyl)amino)pyrimidin-2-yl)amino)-3-methoxyphenyl)piperidin-4-yl)(methyl)amino)methyl)phenyl)amino)piperidine-2,6-dione]
IC50 [1]: 100 to 500 nM
IC50 [2]: 500 to 1000 nM
IC50 [3]: 100 to 500 nM
IC50 [4]: 10 to 50 nM
IC50 [6]: 500 to 1000 nM
Degradation of substrate protein ALK (substrate protein remaining %) [7]: A (A is defined as 0% ≤ substrate protein remaining % ≤ 80%)

COc1cc(N2CCC(N(C)Cc3ccc(C4CCC(=O)NC4=O)cc3)CC2)ccc1Nc1ncc(Cl)c(Nc2ccccc2P(C)(C)=O)n1 (stereo not shown) [GT-03603, 3-(4-(((1-(4-((5-chloro-4-((2-(dimethylphosphoryl)phenyl)amino)pyrimidin-2-yl)amino)-3-methoxyphenyl)piperidin-4-yl)(methyl)amino)methyl)phenyl)piperidine-2,6-dione]
IC50 [1]: 50 to 100 nM
IC50 [2]: 500 to 1000 nM
IC50 [4]: 1 to 10 nM
IC50 [5]: 500 to 1000 nM
IC50 [6]: 500 to 1000 nM
inhibition at 0.5 µM [8]: 30 to 40%
inhibition at 2 µM [8]: 53 to 60%
Degradation of substrate protein ALK (substrate protein remaining %) [7]: A (A is defined as 0% ≤ substrate protein remaining % ≤ 80%)

Cc1cc(Nc2ncc(Cl)c(Nc3ccccc3S(=O)(=O)C(C)C)n2)c(OC(C)C)cc1C1CCN(Cc2ccc(C3CCC(=O)NC3=O)cc2)CC1 (stereo not shown) [GT-07364, 3-(4-((4-(4-((5-chloro-4-((2-(isopropylsulfonyl)phenyl)amino)pyrimidin-2-yl)amino)-5-isopropoxy-2-methylphenyl)piperidin-1-yl)methyl)phenyl)piperidine-2,6-dione]
IC50 [1]: 100 to 500 nM
IC50 [3]: 100 to 500 nM
IC50 [4]: 10 to 50 nM
IC50 [5]: 500 to 1000 nM
IC50 [6]: 500 to 1000 nM
Degradation of substrate protein ALK (substrate protein remaining %) [7]: A (A is defined as 0% ≤ substrate protein remaining % ≤ 80%)

COc1cc(N2CCC(N3CCN(Cc4cccc(NC5CCC(=O)NC5=O)c4)CC3)CC2)ccc1Nc1ncc(Cl)c(Nc2ccccc2P(C)(C)=O)n1 (stereo not shown) [GT-07605, 3-((3-((4-(1-(4-((5-chloro-4-((2-(dimethylphosphoryl)phenyl)amino)pyrimidin-2-yl)amino)-3-methoxyphenyl)piperidin-4-yl)piperazin-1-yl)methyl)phenyl)amino)pip eridine-2,6-dione]
IC50 [1]: 50 to 100 nM
IC50 [2]: 100 to 500 nM
IC50 [3]: 100 to 500 nM
IC50 [4]: 1 to 10 nM
IC50 [6]: 100 to 500 nM
Degradation of substrate protein ALK (substrate protein remaining %) [7]: A (A is defined as 0% ≤ substrate protein remaining % ≤ 80%)

COc1cc(N2CCC(N3CCN(Cc4ccc(C5CCC(=O)NC5=O)cn4)CC3)CC2)ccc1Nc1ncc(Cl)c(Nc2ccccc2P(C)(C)=O)n1 (stereo not shown) [GT-07613, 3-(6-((4-(1-(4-((5-chloro-4-((2-(dimethylphosphoryl)phenyl)amino)pyrimidin-2-yl)amino)-3-methoxyphenyl)piperidin-4-yl)piperazin-1-yl)methyl)pyridin-3-yl)piperidine-2,6-dione]
IC50 [1]: 50 to 100 nM
IC50 [2]: 500 to 1000 nM
IC50 [3]: 500 to 1000 nM
IC50 [4]: 1 to 10 nM
IC50 [6]: 500 to 1000 nM
Degradation of substrate protein ALK (substrate protein remaining %) [7]: A (A is defined as 0% ≤ substrate protein remaining % ≤ 80%)

COc1cc(N2CCC(N3CCN(Cc4ccnc(N5CCC(=O)NC5=O)c4)CC3)CC2)ccc1Nc1ncc(Cl)c(Nc2ccccc2P(C)(C)=O)n1 [GT-07609, 1-(4-((4-(1-(4-((5-chloro-4-((2-(dimethylphosphoryl)phenyl)amino)pyrimidin-2-yl)amino)-3-methoxyphenyl)piperidin-4-yl)piperazin-1-yl)methyl)pyridin-2-yl)dihydropyrimidine-2,4(1H,3H)-dione]
IC50 [1]: 10 to 50 nM
IC50 [2]: 100 to 500 nM
IC50 [3]: 100 to 500 nM
IC50 [4]: 1 to 10 nM
IC50 [5]: 500 to 1000 nM
IC50 [6]: 500 to 1000 nM
Degradation of substrate protein ALK (substrate protein remaining %) [7]: A (A is defined as 0% ≤ substrate protein remaining % ≤ 80%)

COc1cc(N2CCC(N3CCN(Cc4cc(N5CCC(=O)NC5=O)ncc4F)CC3)CC2)ccc1Nc1ncc(Cl)c(Nc2ccccc2P(C)(C)=O)n1 [GT-07608, 1-(4-((4-(1-(4-((5-chloro-4-((2-(dimethylphosphoryl)phenyl)amino)pyrimidin-2-yl)amino)-3-methoxyphenyl)piperidin-4-yl)piperazin-1-yl)methyl)-5-fluoropyridin-2-yl)dihydropyrimidine-2,4(1H,3H)-dione]
IC50 [1]: 10 to 50 nM
IC50 [2]: 100 to 500 nM
IC50 [3]: 100 to 500 nM
IC50 [4]: 1 to 10 nM
IC50 [5]: 500 to 1000 nM
IC50 [6]: 100 to 500 nM
Degradation of substrate protein ALK (substrate protein remaining %) [7]: A (A is defined as 0% ≤ substrate protein remaining % ≤ 80%)

COc1cc(N2CCC(N(C)Cc3ccc(C4CCC(=O)NC4=O)c(F)c3)CC2)ccc1Nc1ncc(Cl)c(Nc2ccccc2P(C)(C)=O)n1 (stereo not shown) [GT-03604, 3-(4-(((1-(4-((5-chloro-4-((2-(dimethylphosphoryl)phenyl)amino)pyrimidin-2-yl)amino)-3-methoxyphenyl)piperidin-4-yl)(methyl)amino)methyl)-2-fluorophenyl)piperidine-2,6-dione]
IC50 [1]: 10 to 50 nM
IC50 [2]: 100 to 500 nM
IC50 [4]: 1 to 10 nM
IC50 [5]: 500 to 1000 nM
IC50 [6]: 100 to 500 nM
inhibition at 0.5 µM [8]: 20 to 30%
inhibition at 2 µM [8]: 53 to 60%
Degradation of substrate protein ALK (substrate protein remaining %) [7]: A (A is defined as 0% ≤ substrate protein remaining % ≤ 80%)

COc1cc(N2CCC(N(C)Cc3cncc(C4CCC(=O)NC4=O)c3)CC2)ccc1Nc1ncc(Cl)c(Nc2ccccc2P(C)(C)=O)n1 (stereo not shown) [GT-07699, 3-(5-(((1-(4-((5-chloro-4-((2-(dimethylphosphoryl)phenyl)amino)pyrimidin-2-yl)amino)-3-methoxyphenyl)piperidin-4-yl)(methyl)amino)methyl)pyridin-3-yl)piperidine-2,6-dione]
IC50 [1]: 100 to 500 nM
IC50 [2]: 500 to 1000 nM
IC50 [3]: 500 to 1000 nM
IC50 [4]: 10 to 50 nM
IC50 [6]: 500 to 1000 nM
Degradation of substrate protein ALK (substrate protein remaining %) [7]: A (A is defined as 0% ≤ substrate protein remaining % ≤ 80%)
